Tested on: T25 (DNA, single strand, C6-amino dT at 8 of strand 2) TGGCGACGGCAGCGAGGCTTTTTTTTTTTTTTTTTTTTTTTTT/GCCTCGCTGCCGTCGCCA
Assay: Cy3 fluorescence quenching
Conditions: 100 mM KCl; 10 mM Tris-HCl pH 7.5, room temperature, 50 nM DNA; negative control, nonspecific quenching taken as background

binding: weak
SMILES: CCc1c(C)c2cc3nc(cc4nc(cc5c(CC)c(C)c(cc1[nH]2)n5C)C(C)=C4CCC(=O)O)C(CCC(=O)O)=C3C
